Where two headings read alike, the source gives them in different places.
Key:
[1] = Pharmacokinetics of LN002 in rat plasma after single intravenous injection or oral gavage; format: in vivo, Sprague–Dawley (SD) rats; details: rats; for AUC(0-t): read-out: AUC0–24 h
Procedure: A total of 24 SD rats, half for each sex, were randomly distributed into four groups and used in the plasma PK study. Heparin sodium was used to prevent blood clotting. Groups 1, 2, and 3 were single-dose oral administration groups, and the administered doses were 100, 200, and 400 mg/kg, respectively. The fourth group was a single-dose group, in which the subjects received 1 mg/kg LN002 via tail vein intravenous injection (In the oral administration group, the drugs were dissolved in 0.5% sodium carboxymethylcellulose, whereas those in the intravenous injection group were dissolved in N,N-dimethylformamide). After administration for each group, approximately 200–300 μL of plasma samples were collected from the tail vein at predefined times (0.167, 0.5, 0.75, 1, 2, 3, 4, 6, 8, 12, and 24 h) ([Song et al., 2021a]). Subsequently, these samples were then placed in centrifuge tubes containing heparin sodium, subjected to centrifugation at 5000 rpm for 10 min at 4°C, and the resulting supernatant was collected and stored at −20°C until further analysis. An aliquot of 100 µL of rat plasma was transferred into a 2 mL Eppendorf (EP) tube and precipitated with 300 µL of acetonitrile. The mixture was vortexed for 1 min, then centrifuged at 13,000 rpm at 4°C for 10 min, and passed through a 0.22 μm filter membrane. Final analysis was conducted by injecting 20 µL of supernatant into HPLC. A Shimadzu LC-20A system (Shimadzu Technologies, Kyoto, Japan) equipped with a LabSolutions system (version 5.1) system was used for HPLC analysis. The separation process utilized an ARD-C18 column (250 mm × 4.6 mm, 5 µm) (Zhongpu Technology Co., Ltd., Fuzhou, China). The analytes were detected using a UV detector at 333 nm. The chromatographic conditions used an isocratic mobile phase that combines methanol (solvent A) and deionized water (solvent B) (75:25, v/v), and they were propelled through the column at a constant flow rate of 1 mL/min, ensuring uniform separation. The injection volume was 20 μL. The temperature of the column was set to 40°C. Pharmacokinetic data were obtained via non-compartmental PK analysis of total concentration versus time profiles for plasma using Phoenix WinNonlin 8.2 (Certara, L.P., Princeton, NJ, United States). Statistical analysis and graphing were undertaken using GraphPad Prism 9.5 for Windows (GraphPad Software, Inc., La Jolla, CA, United States).

[2] = Stability of LN002 in rat plasma, liver homogenate and intestinal contents under storage conditions; format: in vitro ADME; design: Short-term stability at room temperature (6 h), measured concentration / Freeze and thaw stability at −20°C/Room temperature (3 cycles), measured concentration / Auto-sampler stability (12 h), measured concentration / Long-term stability at −20°C (30 days), measured concentration: unit not given here; details: for Auto-sampler stability (12 h), measured concentration / Freeze and thaw stability at −20°C/Room temperature (3 cycles), measured concentration / Long-term stability at −20°C (30 days), measured concentration / Short-term stability at room temperature (6 h), measured concentration: n = 6, mean ± SD
Procedure: By investigating the low, middle, and high-concentration stability of rat plasma, the liver and intestinal contents in six replicates at different storage conditions, autosampler, short-term, freeze and thaw, long-term stability, and stock solution stability evaluations were conducted.

[3] = both sexes, Sprague-Dawley, rat, iv, plasma, i.v. 1 mg/kg, n = 6, mean ± SD
[4] = both sexes, Sprague-Dawley, rat, plasma, iv, 1 mg/kg, i.v. 1 mg/kg, n = 6, mean ± SD
[5] = both sexes, Sprague-Dawley, rat, plasma, po, 100 mg/kg, oral 100 mg/kg, n = 6, mean ± SD
[6] = both sexes, Sprague-Dawley, rat, plasma, po, 200 mg/kg, oral 200 mg/kg, n = 6, mean ± SD
[7] = both sexes, Sprague-Dawley, rat, plasma, po, 400 mg/kg, oral 400 mg/kg, n = 6, mean ± SD
[8] = both sexes, Sprague-Dawley, rat, plasma, po, 400 mg/kg, oral single dose, range across 100, 200 and 400 mg/kg
[9] = both sexes, Sprague-Dawley, rat, plasma, oral 100 mg/kg, n = 6, mean ± SD
[10] = both sexes, Sprague-Dawley, rat, plasma, oral 200 mg/kg, n = 6, mean ± SD
[11] = both sexes, Sprague-Dawley, rat, plasma, oral 400 mg/kg, n = 6, mean ± SD
[12] = intestinal contents, nominal concentration 50 ng/g
[13] = intestinal contents, nominal concentration 200 ng/g
[14] = intestinal contents, nominal concentration 1,000 ng/g
[15] = liver, nominal concentration 50 ng/g
[16] = liver, nominal concentration 200 ng/g
[17] = liver, nominal concentration 1,000 ng/g
[18] = plasma, nominal concentration 50 ng/mL
[19] = plasma, nominal concentration 200 ng/mL
[20] = plasma, nominal concentration 1,000 ng/mL

Tmax ([1]; both sexes, Sprague-Dawley, rat, iv, plasma, i.v. 1 mg/kg, n = 6): 0.75 h
AUC(0-inf) [1, 3]: 8650 ± 1940 ng·h/mL
clearance [1, 3]: 1.83 mL/min/kg
Vd ([1]; both sexes, Sprague-Dawley, rat, iv, plasma, i.v. 1 mg/kg, n = 6, mean ± SD, read-out: Vd): 1.69 ± 0.44 L/kg
Cmax [1, 4]: 2940 ± 2160 ng/mL
half-life [1, 4]: 10.9 ± 6.56 h
AUC(0-t) ([1]; both sexes, Sprague-Dawley, rat, plasma, iv, 1 mg/kg, plasma, i.v. 1 mg/kg, n = 6, mean ± SD): 7020 ± 1520 ng·h/mL
Cmax [1, 5]: 850 ± 190 ng/mL
half-life [1, 5]: 18 ± 5.82 h
bioavailability ([1]; both sexes, Sprague-Dawley, rat, plasma, po, 100 mg/kg, oral 100 mg/kg, read-out: F (oral bioavailability)): 0.32%
AUC(0-t) ([1]; both sexes, Sprague-Dawley, rat, plasma, po, 100 mg/kg, plasma, oral 100 mg/kg, n = 6, mean ± SD): 2280 ± 227 ng·h/mL
CL/F ([1]; both sexes, Sprague-Dawley, rat, plasma, po, 100 mg/kg, plasma, oral 100 mg/kg, n = 6, mean ± SD, read-out: Cl (Cl/F in text) (converted)): 433 mL/min/kg
Cmax [1, 6]: 1670 ± 106 ng/mL
half-life [1, 6]: 18 ± 14.8 h
bioavailability ([1]; both sexes, Sprague-Dawley, rat, plasma, po, 200 mg/kg, oral 200 mg/kg, read-out: F (oral bioavailability)): 0.29%
AUC(0-t) ([1]; both sexes, Sprague-Dawley, rat, plasma, po, 200 mg/kg, plasma, oral 200 mg/kg, n = 6, mean ± SD): 4070 ± 779 ng·h/mL
CL/F ([1]; both sexes, Sprague-Dawley, rat, plasma, po, 200 mg/kg, plasma, oral 200 mg/kg, n = 6, mean ± SD, read-out: Cl (Cl/F in text) (converted)): 524 mL/min/kg
Cmax [1, 7]: 4030 ± 410 ng/mL
half-life [1, 7]: 18.8 ± 11.4 h
bioavailability ([1]; both sexes, Sprague-Dawley, rat, plasma, po, 400 mg/kg, oral 400 mg/kg, read-out: F (oral bioavailability)): 0.27%
Cmax [1, 8]: 850 to 4030 ng/mL
half-life [1, 8]: 18 to 18.8 h
bioavailability ([1]; both sexes, Sprague-Dawley, rat, plasma, po, 400 mg/kg, oral single dose, range across 100, 200 and 400 mg/kg, read-out: F): 0.27 to 0.32%
AUC(0-t) ([1]; both sexes, Sprague-Dawley, rat, plasma, po, 400 mg/kg, plasma, oral 400 mg/kg, n = 6, mean ± SD): 7500 ± 507 ng·h/mL
CL/F ([1]; both sexes, Sprague-Dawley, rat, plasma, po, 400 mg/kg, plasma, oral 400 mg/kg, n = 6, mean ± SD, read-out: Cl (Cl/F in text) (converted)): 650 mL/min/kg
AUC(0-t) ([1]; both sexes, Sprague-Dawley, rat, plasma, po, 400 mg/kg, plasma, oral single dose, range across 100, 200 and 400 mg/kg): 2280 to 7500 ng·h/mL
CL/F ([1]; both sexes, Sprague-Dawley, rat, plasma, po, 400 mg/kg, plasma, oral single dose, range across 100, 200 and 400 mg/kg, read-out: Cl/F): 433 to 650 mL/min/kg
Tmax ([1]; both sexes, Sprague-Dawley, rat, plasma, oral 100 mg/kg, n = 6): 1 h
AUC(0-inf) [1, 9]: 3530 ± 734 ng·h/mL
Vd/F [1, 9]: 582 ± 270 L/kg
Tmax ([1]; both sexes, Sprague-Dawley, rat, plasma, oral 200 mg/kg, n = 6): 1 h
AUC(0-inf) [1, 10]: 6030 ± 2310 ng·h/mL
Vd/F [1, 10]: 764 ± 314 L/kg
AUC(0-inf) [1, 11]: 11400 ng·h/mL
Vd/F [1, 11]: 869 ± 279 L/kg
Tmax ([1]; both sexes, Sprague-Dawley, rat, plasma, oral single dose, across 100, 200 and 400 mg/kg): 1 h
PK behaviour over dose (in words) ([1]; oral 100, 200 and 400 mg/kg): linear
Vd ([1]; plasma, oral single dose, range across 100, 200 and 400 mg/kg): 581.54 to 869.21 L/kg
Auto-sampler stability (12 h), measured concentration [2, 12]: 0.048 ± 0.001
Freeze and thaw stability at −20°C/Room temperature (3 cycles), measured concentration [2, 12]: 0.050 ± 0.002
Long-term stability at −20°C (30 days), measured concentration [2, 12]: 0.048 ± 0.002
Short-term stability at room temperature (6 h), measured concentration [2, 12]: 0.051 ± 0.002
Auto-sampler stability (12 h), measured concentration [2, 13]: 0.191 ± 0.011
Freeze and thaw stability at −20°C/Room temperature (3 cycles), measured concentration [2, 13]: 0.192 ± 0.009
Long-term stability at −20°C (30 days), measured concentration [2, 13]: 0.202 ± 0.003
Short-term stability at room temperature (6 h), measured concentration [2, 13]: 0.204 ± 0.007
Auto-sampler stability (12 h), measured concentration [2, 14]: 1.001 ± 0.034
Freeze and thaw stability at −20°C/Room temperature (3 cycles), measured concentration [2, 14]: 0.978 ± 0.053
Long-term stability at −20°C (30 days), measured concentration [2, 14]: 0.997 ± 0.012
Short-term stability at room temperature (6 h), measured concentration [2, 14]: 0.976 ± 0.042
Auto-sampler stability (12 h), measured concentration [2, 15]: 0.049 ± 0.002
Freeze and thaw stability at −20°C/Room temperature (3 cycles), measured concentration [2, 15]: 0.051 ± 0.002
Long-term stability at −20°C (30 days), measured concentration [2, 15]: 0.051 ± 0.002
Short-term stability at room temperature (6 h), measured concentration [2, 15]: 0.050 ± 0.003
Auto-sampler stability (12 h), measured concentration [2, 16]: 0.198 ± 0.007
Freeze and thaw stability at −20°C/Room temperature (3 cycles), measured concentration [2, 16]: 0.205 ± 0.005
Long-term stability at −20°C (30 days), measured concentration [2, 16]: 0.196 ± 0.007
Short-term stability at room temperature (6 h), measured concentration [2, 16]: 0.197 ± 0.009
Auto-sampler stability (12 h), measured concentration [2, 17]: 1.065 ± 0.036
Freeze and thaw stability at −20°C/Room temperature (3 cycles), measured concentration [2, 17]: 0.985 ± 0.057
Long-term stability at −20°C (30 days), measured concentration [2, 17]: 0.995 ± 0.064
Short-term stability at room temperature (6 h), measured concentration [2, 17]: 0.984 ± 0.042
Auto-sampler stability (12 h), measured concentration [2, 18]: 0.050 ± 0.002
Freeze and thaw stability at −20°C/Room temperature (3 cycles), measured concentration [2, 18]: 0.048 ± 0.002
Long-term stability at −20°C (30 days), measured concentration [2, 18]: 0.052 ± 0.002
Short-term stability at room temperature (6 h), measured concentration [2, 18]: 0.051 ± 0.003
Auto-sampler stability (12 h), measured concentration [2, 19]: 0.204 ± 0.014
Freeze and thaw stability at −20°C/Room temperature (3 cycles), measured concentration [2, 19]: 0.197 ± 0.014
Long-term stability at −20°C (30 days), measured concentration [2, 19]: 0.203 ± 0.006
Short-term stability at room temperature (6 h), measured concentration [2, 19]: 0.210 ± 0.013
Auto-sampler stability (12 h), measured concentration [2, 20]: 0.992 ± 0.061
Freeze and thaw stability at −20°C/Room temperature (3 cycles), measured concentration [2, 20]: 1.028 ± 0.035
Long-term stability at −20°C (30 days), measured concentration [2, 20]: 1.035 ± 0.080
Short-term stability at room temperature (6 h), measured concentration [2, 20]: 0.987 ± 0.032
Stability in plasma and tissue homogenate (in words) ([2]; rat plasma, liver, intestinal contents, short-term, freeze and thaw, auto-sampler, long-term): stable
SMILES: N#C/C(=C\c1c[nH]nc1-c1ccccc1)c1nn(-c2ccccc2)c(N)c1C#N [LN002, 5-amino-3-[1-cyano-2-(3-phenyl-4-vinopyrazole))-1-phenyl-4-vinopyrazole]
